Test results reported in article PMC3685217, “Activation of IP3 receptors requires an endogenous 1-8-14 calmodulin-binding motif” (Biochemical Journal, 2012).

Experiments:
full-length IP3R1 = molecular target: T1, full-length IP3R1 (Rattus norvegicus, UniProt P29994); test: [3H]IP3 binding to membranes from rat cerebellum; conditions: 3 mM peptide, [3H]IP3 1.5 nM
T1 construct: membranes from rat cerebellum (full-length IP3R, FL); from tissue; host or cells: rat cerebellum membranes
Protocol: (§1) Equilibrium-competition binding assays were performed at 4°C for 5 min in CLM (500 μl) with a free Ca^2+ concentration of 220 nM and containing [^3H]IP3 (0.75–1.5 nM), bacterial lysate (10 μg of protein for IBC and 100 μg of protein for NT) or cerebellar membranes (50 μg of protein) and competing ligands. Non-specific binding was defined by addition of 10 μM IP3. Bound and free [^3H]IP3 were separated by centrifugation at 20000 g for 5 min, after addition of poly(ethylene glycol) (15% final concentration) and γ-globulin (0.75 mg) for soluble proteins. Results were analysed by fitting to a Hill equation (using GraphPad Prism) from which the IC50 (half-maximal inhibitory concentration) and thereby the Kd (equilibrium dissociation constant) were calculated.
Figure 4 1-8-14 peptide directly stimulates IP3 binding to the NT of IP3R (A) Specific equilibrium binding of [^3H]IP3 (1.5 nM) to membranes from rat cerebellum (full-length IP3R, FL) or to isolated NT or IBC, alone or in the presence of 3 mM of the indicated peptide. *P<0.05 and **P<0.01 relative to control; comparisons were performed on the raw data. (B) Concentration-dependent effects of 1-8-14 peptide on specific [^3H]IP3 binding to NT in CLM with 220 nM free Ca^2+ concentration, plotted as the increase in specific [^3H]IP3 binding as a percentage of that evoked by the maximal concentration of peptide. […]

[1] = molecular target: T2, NT (residues 1–604) of rat IP3R1 (Rattus norvegicus, UniProt P29994, DEL318-332); test: [3H]IP3 equilibrium-competition binding to NT
T2 construct: The NT (residues 1–604) and IBC (residues 224–604) of rat IP3R1; His6 (N, cleaved yes); made in house; host or cells: Escherichia coli BL21(DE3)
T2 sequence (P29994 1-589 isoform P29994-2 limits assumed, stated change not applied): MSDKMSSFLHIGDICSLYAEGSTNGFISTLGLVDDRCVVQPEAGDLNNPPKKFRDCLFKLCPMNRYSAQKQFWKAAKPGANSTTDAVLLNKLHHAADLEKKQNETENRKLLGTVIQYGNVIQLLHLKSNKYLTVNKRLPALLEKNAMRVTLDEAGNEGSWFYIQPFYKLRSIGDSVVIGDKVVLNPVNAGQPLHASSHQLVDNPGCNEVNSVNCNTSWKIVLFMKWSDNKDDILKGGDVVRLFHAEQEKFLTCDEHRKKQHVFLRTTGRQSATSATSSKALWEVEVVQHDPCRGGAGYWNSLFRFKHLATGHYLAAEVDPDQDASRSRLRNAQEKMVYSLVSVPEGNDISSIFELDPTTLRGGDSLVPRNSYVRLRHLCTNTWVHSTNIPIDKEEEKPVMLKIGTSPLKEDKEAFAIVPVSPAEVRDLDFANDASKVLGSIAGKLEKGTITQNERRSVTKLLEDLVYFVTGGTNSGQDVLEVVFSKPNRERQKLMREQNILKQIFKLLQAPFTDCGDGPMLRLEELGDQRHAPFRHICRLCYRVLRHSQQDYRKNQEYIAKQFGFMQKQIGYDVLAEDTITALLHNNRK
From the text: (§2) The NT (residues 1–604) and IBC (residues 224–604) of rat IP3R1 were amplified by PCR from the full-length receptor clone lacking the SI splice region (GenBank® accession number GQ233032.1) as described previously. The fragments were ligated into pTrcHis A (Invitrogen) to allow expression of N-terminally His6-tagged proteins. Mutagenesis of the 1-8-14 motif within the NT used the QuikChange® II XL site-directed mutagenesis kit (Stratagene) for single mutants (F53E, L60E, Y66E and K52E) and the QuikChange® multi-site-directed mutagenesis kit for the double mutant (F53E and Y66E). The primers used are listed in Supplementary Table S2 (at http://www.BiochemJ.org/bj/449/bj4490039add.htm). The same primers and conditions were used for mutagenesis of full-length IP3R using IP3R1 in the pENTR 1A vector. Full-length constructs were subcloned into pcDNA3.2/V5-DEST for expression in DT40 cells. The complete sequence of every mutant construct was verified by sequencing.
(§3) The pTrcHis constructs were used for expression of N-terminally His6-tagged proteins in Escherichia coli strain BL21(DE3) cells. Before use for [^3H]IP3 binding, proteins were cleaved from the His6 tags using biotinylated thrombin (Novagen) at the engineered thrombin-cleavage site. Complete cleavage was verified by Western blotting using an anti-His6 antibody. The proteins were used for [^3H]IP3 binding without further purification.
as §1

rat IP3R1 [2] = molecular target: T3, rat IP3R1 (Rattus norvegicus, UniProt P29994); test: Patch-clamp recording from patches excised from the outer nuclear envelope of DT40 cells; type: biochemical; conditions: IP3 10 μM
T3 construct: expressed in transfected cells; host or cells: DT40 cells (chicken B cells, all endogenous IP3R genes disrupted) stably expressing rat IP3R1
T3 sequence (P29994 1-2735 isoform P29994-2): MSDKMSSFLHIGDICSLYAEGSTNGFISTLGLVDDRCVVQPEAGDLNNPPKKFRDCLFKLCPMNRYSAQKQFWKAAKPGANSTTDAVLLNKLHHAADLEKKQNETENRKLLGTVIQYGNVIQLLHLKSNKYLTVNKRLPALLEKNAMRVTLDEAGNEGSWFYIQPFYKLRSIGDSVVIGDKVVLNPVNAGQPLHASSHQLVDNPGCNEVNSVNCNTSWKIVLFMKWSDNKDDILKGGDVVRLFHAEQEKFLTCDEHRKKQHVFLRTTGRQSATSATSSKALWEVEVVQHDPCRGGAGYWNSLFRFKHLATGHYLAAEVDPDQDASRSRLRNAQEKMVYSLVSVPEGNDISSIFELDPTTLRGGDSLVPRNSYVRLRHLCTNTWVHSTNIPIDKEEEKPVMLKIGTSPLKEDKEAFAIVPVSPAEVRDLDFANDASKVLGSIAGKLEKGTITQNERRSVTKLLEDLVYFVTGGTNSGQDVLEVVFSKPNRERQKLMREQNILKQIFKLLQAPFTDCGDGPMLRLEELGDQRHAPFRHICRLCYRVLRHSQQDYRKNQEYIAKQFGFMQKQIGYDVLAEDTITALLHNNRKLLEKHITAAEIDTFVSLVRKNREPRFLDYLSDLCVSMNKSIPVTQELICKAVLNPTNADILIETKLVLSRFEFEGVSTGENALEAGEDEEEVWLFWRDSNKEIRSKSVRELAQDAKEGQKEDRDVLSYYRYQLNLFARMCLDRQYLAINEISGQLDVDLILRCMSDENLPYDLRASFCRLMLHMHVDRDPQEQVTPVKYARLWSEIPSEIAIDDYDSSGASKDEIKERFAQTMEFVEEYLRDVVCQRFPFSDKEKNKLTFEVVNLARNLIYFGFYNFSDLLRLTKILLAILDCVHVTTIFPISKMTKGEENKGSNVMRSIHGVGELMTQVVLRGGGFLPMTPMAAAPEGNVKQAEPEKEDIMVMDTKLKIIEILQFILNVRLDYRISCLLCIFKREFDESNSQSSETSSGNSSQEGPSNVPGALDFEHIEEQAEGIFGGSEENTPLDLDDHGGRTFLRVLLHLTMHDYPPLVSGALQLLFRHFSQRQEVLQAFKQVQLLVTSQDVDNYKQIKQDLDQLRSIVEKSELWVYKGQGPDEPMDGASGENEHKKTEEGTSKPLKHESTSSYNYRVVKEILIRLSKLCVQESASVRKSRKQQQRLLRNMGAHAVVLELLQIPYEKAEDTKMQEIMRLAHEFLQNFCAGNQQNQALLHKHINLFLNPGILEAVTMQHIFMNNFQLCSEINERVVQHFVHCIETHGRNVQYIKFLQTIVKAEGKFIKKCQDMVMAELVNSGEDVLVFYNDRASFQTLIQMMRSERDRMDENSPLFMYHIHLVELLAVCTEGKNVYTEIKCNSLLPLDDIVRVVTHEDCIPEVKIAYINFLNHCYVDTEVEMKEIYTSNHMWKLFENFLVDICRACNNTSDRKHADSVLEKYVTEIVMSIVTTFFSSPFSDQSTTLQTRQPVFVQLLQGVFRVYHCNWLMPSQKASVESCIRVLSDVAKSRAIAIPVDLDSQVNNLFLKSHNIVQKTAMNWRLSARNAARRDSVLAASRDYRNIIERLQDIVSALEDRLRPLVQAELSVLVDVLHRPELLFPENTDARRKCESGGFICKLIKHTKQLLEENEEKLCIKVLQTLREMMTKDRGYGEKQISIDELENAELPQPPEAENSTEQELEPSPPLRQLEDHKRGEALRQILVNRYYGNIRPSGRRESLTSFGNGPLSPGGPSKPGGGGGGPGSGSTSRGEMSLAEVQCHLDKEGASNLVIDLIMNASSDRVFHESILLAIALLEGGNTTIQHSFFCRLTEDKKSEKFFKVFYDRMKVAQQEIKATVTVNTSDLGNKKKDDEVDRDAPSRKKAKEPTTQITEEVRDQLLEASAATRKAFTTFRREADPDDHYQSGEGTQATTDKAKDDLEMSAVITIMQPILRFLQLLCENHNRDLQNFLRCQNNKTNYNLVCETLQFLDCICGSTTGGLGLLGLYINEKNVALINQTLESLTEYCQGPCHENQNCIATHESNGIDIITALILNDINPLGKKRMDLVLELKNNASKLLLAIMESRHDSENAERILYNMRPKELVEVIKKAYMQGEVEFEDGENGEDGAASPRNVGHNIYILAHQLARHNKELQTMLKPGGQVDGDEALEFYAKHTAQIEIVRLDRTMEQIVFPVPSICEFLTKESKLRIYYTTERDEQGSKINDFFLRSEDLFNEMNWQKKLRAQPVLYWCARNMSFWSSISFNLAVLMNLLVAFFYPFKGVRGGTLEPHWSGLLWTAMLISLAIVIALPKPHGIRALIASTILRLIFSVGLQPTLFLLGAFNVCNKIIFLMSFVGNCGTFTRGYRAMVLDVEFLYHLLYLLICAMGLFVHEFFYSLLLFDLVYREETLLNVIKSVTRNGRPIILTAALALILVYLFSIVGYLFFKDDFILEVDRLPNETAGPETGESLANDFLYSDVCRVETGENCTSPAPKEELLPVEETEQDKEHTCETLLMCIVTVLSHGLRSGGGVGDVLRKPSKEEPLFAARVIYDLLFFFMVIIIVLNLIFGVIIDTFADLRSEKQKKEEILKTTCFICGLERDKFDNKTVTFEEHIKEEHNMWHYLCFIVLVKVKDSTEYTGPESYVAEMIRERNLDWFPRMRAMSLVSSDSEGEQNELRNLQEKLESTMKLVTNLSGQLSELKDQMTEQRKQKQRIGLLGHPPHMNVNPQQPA
Protocol: Currents were recorded from patches excised from the outer nuclear envelope of DT40 cells expressing recombinant rat IP3R1 using symmetrical caesium methanesulfonate (140 mM) as the charge-carrier. The composition of recording solutions and methods of analysis were otherwise as described previously.

[3] = molecular target: T4, IBC (residues 224–604) of rat IP3R1 (Rattus norvegicus, UniProt P29994, DEL318-332); test: [3H]IP3 equilibrium-competition binding to IBC; conditions: 3 mM peptide, [3H]IP3 1.5 nM
T4 construct: IBC (residues 224–604) of rat IP3R1 were amplified by PCR; His6 (N, cleaved yes); made in house; host or cells: Escherichia coli BL21(DE3)
T4 sequence (P29994 224-589 isoform P29994-2 limits assumed, stated change not applied): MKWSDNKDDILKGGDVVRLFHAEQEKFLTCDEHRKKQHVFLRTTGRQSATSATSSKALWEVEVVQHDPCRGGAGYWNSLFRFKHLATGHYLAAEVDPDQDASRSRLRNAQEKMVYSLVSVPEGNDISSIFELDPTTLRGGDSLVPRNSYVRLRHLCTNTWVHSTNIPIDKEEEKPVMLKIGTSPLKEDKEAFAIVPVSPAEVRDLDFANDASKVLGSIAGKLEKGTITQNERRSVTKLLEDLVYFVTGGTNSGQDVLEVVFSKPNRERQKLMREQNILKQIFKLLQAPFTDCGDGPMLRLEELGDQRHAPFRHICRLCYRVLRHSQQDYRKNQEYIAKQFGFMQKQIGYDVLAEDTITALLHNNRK
From the text: as §2, §3, §1

rat IP3R1 [4] = molecular target: T3, rat IP3R1; test: IP3-evoked Ca2+ release from the intracellular stores of permeabilized DT40-IP3R1 cells; type: cell-based
Protocol: The free Ca^2+ concentration of the intracellular stores of permeabilized cells was measured using a low-affinity Ca^2+ indicator trapped within the endoplasmic reticulum as reported previously. Briefly, DT40 cells (4×10^7 cells/ml) were suspended in HBS (Hepes-buffered saline: 135 mM NaCl, 5.9 mM KCl, 11.6 mM Hepes, 1.5 mM CaCl2, 11.5 mM glucose and 1.2 mM MgCl2, pH 7.3) containing 1 mg/ml BSA, 0.4 mg/ml Pluronic F127 and 20 μM mag-fluo-4/AM (Invitrogen). After 1 h at 20°C in the dark with gentle shaking, cells were centrifuged at 650 g for 2 min and resuspended to 10^7 cells/ml in Ca^2+-free CLM (cytosol-like medium) (20 mM NaCl, 140 mM KCl, 1 mM EGTA, 20 mM Pipes and 2 mM MgCl2, pH 7.0) containing 20 μg/ml saponin. After incubation at 37°C with gentle shaking for 4 min, permeabilized cells were centrifuged at 650 g for 2 min and resuspended in Mg^2+-free CLM, supplemented with CaCl2 to give a final free Ca^2+ concentration of 220 nM. The free Ca^2+ concentration of CLM was calculated using the MaxChelator program (http://maxchelator.stanford.edu) and then measured using fluo-3 or fura-2. Cells were then washed, resuspended in Mg^2+-free CLM containing 10 μM FCCP (carbonyl cyanide p-trifluoromethoxyphenylhydrazone) to inhibit mitochondria, and distributed into a 96-well plate (10^6 cells in 50 μl of CLM/well). After centrifugation, fluorescence from the luminal indicator was recorded using a FlexStation II platereader (Molecular Devices) equipped to allow automated additions. In all experiments, the intracellular stores were allowed to load to steady-state with Ca^2+ after addition of MgATP. IP3 was then added with thapsigargin (1 μM, to inhibit Ca^2+ reuptake). The Ca^2+ release evoked by IP3 is expressed as a fraction of the ATP-dependent Ca^2+ uptake.

[5] = molecular target: T5, NT of rat IP3R1 with Y66E mutation (Rattus norvegicus, UniProt P29994, DEL318-332/Y66E); test: [3H]IP3 equilibrium-competition binding to NT Y66E; conditions: 100 μM peptide, [3H]IP3 1.5 nM
T5 construct: The NT (residues 1–604) and IBC (residues 224–604) of rat IP3R1; His6 (N, cleaved yes); made in house; host or cells: Escherichia coli BL21(DE3)
From the text: as §2, §3, §1

[6] = molecular target: T6, NT of rat IP3R1 with L60E mutation (Rattus norvegicus, UniProt P29994, DEL318-332/L60E); test: [3H]IP3 equilibrium-competition binding to NT L60E; conditions: 100 μM peptide, [3H]IP3 1.5 nM
T6 construct: The NT (residues 1–604) and IBC (residues 224–604) of rat IP3R1; His6 (N, cleaved yes); made in house; host or cells: Escherichia coli BL21(DE3)
T6 sequence (P29994 1-589 isoform P29994-2 L60E limits assumed): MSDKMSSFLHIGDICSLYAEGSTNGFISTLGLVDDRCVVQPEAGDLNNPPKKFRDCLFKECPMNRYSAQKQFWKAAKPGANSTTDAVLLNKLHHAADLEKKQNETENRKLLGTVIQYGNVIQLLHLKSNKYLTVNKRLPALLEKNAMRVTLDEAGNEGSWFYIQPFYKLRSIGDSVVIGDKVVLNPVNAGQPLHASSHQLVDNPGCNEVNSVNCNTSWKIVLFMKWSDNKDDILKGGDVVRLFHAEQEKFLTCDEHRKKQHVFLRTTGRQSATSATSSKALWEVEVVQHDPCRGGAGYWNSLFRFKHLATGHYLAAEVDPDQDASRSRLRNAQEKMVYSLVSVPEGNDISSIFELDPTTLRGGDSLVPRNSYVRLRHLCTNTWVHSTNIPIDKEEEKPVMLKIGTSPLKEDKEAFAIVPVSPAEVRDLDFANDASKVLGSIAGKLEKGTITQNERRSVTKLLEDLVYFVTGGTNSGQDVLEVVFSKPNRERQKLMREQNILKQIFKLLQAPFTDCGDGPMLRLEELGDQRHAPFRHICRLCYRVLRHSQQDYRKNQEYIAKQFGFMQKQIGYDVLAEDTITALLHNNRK
From the text: as §2, §3, §1

[7] = molecular target: T7, NT of rat IP3R1 with F53E mutation (Rattus norvegicus, UniProt P29994, DEL318-332/F53E); test: [3H]IP3 equilibrium-competition binding to NT F53E; conditions: 100 μM peptide, [3H]IP3 1.5 nM
T7 construct: The NT (residues 1–604) and IBC (residues 224–604) of rat IP3R1; His6 (N, cleaved yes); made in house; host or cells: Escherichia coli BL21(DE3)
T7 sequence (P29994 1-589 isoform P29994-2 F53E limits assumed): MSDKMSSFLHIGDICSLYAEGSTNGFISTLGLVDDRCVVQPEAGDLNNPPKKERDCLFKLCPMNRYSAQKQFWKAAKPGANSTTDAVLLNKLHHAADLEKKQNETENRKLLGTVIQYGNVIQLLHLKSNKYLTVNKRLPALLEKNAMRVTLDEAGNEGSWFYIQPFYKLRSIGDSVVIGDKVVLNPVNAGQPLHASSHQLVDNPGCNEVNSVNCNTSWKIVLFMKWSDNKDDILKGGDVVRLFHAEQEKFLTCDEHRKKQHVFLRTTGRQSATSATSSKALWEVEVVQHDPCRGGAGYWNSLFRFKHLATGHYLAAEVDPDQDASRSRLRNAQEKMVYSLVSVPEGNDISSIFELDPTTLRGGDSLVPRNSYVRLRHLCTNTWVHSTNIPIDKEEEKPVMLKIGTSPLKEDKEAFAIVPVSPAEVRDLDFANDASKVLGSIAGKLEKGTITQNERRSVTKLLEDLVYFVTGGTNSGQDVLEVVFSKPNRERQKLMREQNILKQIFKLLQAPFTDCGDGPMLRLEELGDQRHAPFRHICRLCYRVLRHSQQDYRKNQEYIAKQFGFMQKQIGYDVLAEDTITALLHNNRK
From the text: as §2, §3, §1

[8] = molecular target: T8, full-length IP3R (wild-type IP3R1) (Rattus norvegicus, UniProt P29994); test: [3H]IP3 binding to full-length IP3R in permeabilized DT40 cells; conditions: 100 μM peptide, [3H]IP3 1.5 nM, not increased for L60E or FY mutants
T8 construct: expressed in transfected cells; host or cells: DT40 cells (chicken B cells, all endogenous IP3R genes disrupted) stably expressing rat IP3R1

Row | Molecule | effect on specific binding of [3H]IP3 to full-length IP3R1 (full-length IP3R1) | EC50 ([1]; CLM with 220 nM free Ca2+, read-out: EC50 for stimulating [3H]IP3 binding to the NT) [µM] | decrease in overall channel activity (NPo) (rat IP3R1 [2]; 3 mM peptide, +40 mV) | decrease in the mean channel open time (τo) (rat IP3R1 [2]; 3 mM peptide, +40 mV) [%] | single-channel conductance (γCs) (rat IP3R1 [2]; peptide-treated IP3Rs (3 mM), n=3, control 214±6 pS) [pS] | effect on IP3 binding to the IBC [3] | dependence of inhibition on cytosolic free Ca2+ concentration (rat IP3R1 [4]; 1 mM peptide, maximally effective IP3) | reversibility of inhibition of IP3-evoked Ca2+ release (rat IP3R1 [4]; 3 mM peptide 10–20 min, washed, rechallenged) | effect on the sensitivity (EC50) to IP3 (rat IP3R1 [4]; 3 mM peptide, pre-incubation 2.5 min) | inhibition at 3000 µM (rat IP3R1 [4]; 3 mM peptide, similar for all IP3 concentrations, read-out: percentage inhibition of IP3-evoked Ca2+ release) [%] | Emax (rat IP3R1 [4]; maximally effective concentration of the peptide, read-out: reduction of the maximal response to IP3) [%] | effect on Ca2+ uptake (rat IP3R1 [4]; permeabilized DT40-IP3R1 cells) | IC50 (rat IP3R1 [4]; permeabilized DT40-IP3R1 cells pre-incubated 10–20 min with peptide, IP3 10 μM, 220 nM free Ca2+, read-out: IC50 for inhibition of IP3-evoked Ca2+ release) [µM] | effect on specific [3H]IP3 binding to NT Y66E [5] | effect on specific [3H]IP3 binding to the NT ([1]; 100 μM peptide, [3H]IP3 1.5 nM) | effect on specific [3H]IP3 binding to NT L60E [6] | effect on specific [3H]IP3 binding to NT F53E [7] | effect on IP3 binding to full-length wild-type IP3R [8]
1 | Ac-KKFRDALFKLAPMNRY-NH2 [1-8-14 peptide, Ac-KKFRDALFKLAPMNRY-NH2] | increased | 615 | ~ 10 fold | 50 | 209±6 | unaffected | enhanced at elevated cytosolic Ca^2+ concentrations | fully reversible | without affecting | ~75 | 77 ± 7 | without affecting | 767 |  |  |  |  | 
2 | CC[C@H](C)[C@H](NC(=O)[C@H](C)NC(=O)[C@H](CCCNC(=N)N)NC(=O)[C@@H](NC(=O)[C@H](C)NC(=O)[C@H](Cc1c[nH]cn1)NC(=O)CNC(=O)[C@@H](NC(=O)[C@H](CCCCN)NC(=O)[C@H](CCC(N)=O)NC(=O)[C@H](Cc1c[nH]c2ccccc12)NC(=O)[C@H](CCCCN)NC(=O)[C@H](CCCNC(=N)N)NC(=O)[C@H](CCCNC(=N)N)NC(C)=O)[C@@H](C)O)C(C)C)C(=O)NCC(=O)N[C@@H](CCCNC(=N)N)C(=O)N[C@@H](CC(C)C)C(N)=O [MLCK peptide, Ac-RRKWQKTGHAVRAIGRL-NH2] |  |  |  |  |  |  |  |  |  |  |  |  |  | neither peptide had any effect | increased | neither peptide had any effect | neither peptide had any effect | increased
